Results: patent US9745275B2, “Pain-related compound and medical composition” (KYOTO UNIVERSITY, priority 2013, dated 2017)

What was measured:
Assay type in all cases: in vivo, mouse
[1] = test system: carrageenan-induced inflammatory pain model mice; test: latency of withdrawal reflex to thermal stimulation (thermal hyperalgesia) in carrageenan-induced inflammatory pain model mice; conditions: given 6 h after carrageenan; for suppression of thermal hyperalgesia: intrathecal, examined over three hours (compound 2: 0.1, 1 or 10 pmol)
Protocol: Before and after carrageenan (2%, 25 μl) was subcutaneously administered to a one-side hind limb sole of each mouse (male, C57BL/6J, ([…]), thermal stimulation was applied, and latency of a withdrawal reflex behavior of the hind limb was measured. The appearance of the phenomenon of thermal hyperalgesia due to carrageenan was checked over six hours after the administration, and thereafter, the compound 1 or a solvent used for dissolution (veh.) was administered orally (1 pmol or 10 pmol per 1 g of the mouse body). Effects were examined over two hours thereafter. The results are illustrated in FIG. 2.
Before and after carrageenan (2%, 25 μl) was subcutaneously administered to a one-side hind limb sole of each mouse (male, C57BL/6J, 6 to 8 weeks old), mechanical stimulation or thermal stimulation was applied, and threshold (mechanical stimulation) and latency (thermal stimulation) of a withdrawal reflex behavior of the hind limb were measured. The appearance of the phenomenon of mechanical allodynia or the appearance of thermal hyperalgesia due to carrageenan was checked over six hours after the administration, and thereafter, the compound 2 was administered intrathecally (0.1 pmol, 1 pmol, or 10 pmol). Effects were examined over three hours thereafter. The solution of the compound 2 was prepared by dissolving the compound 2 in 99% DMSO, and diluting the same with physiological saline solution (0.2% DMSO in physiological saline solution).
Before and after carrageenan (2%, 25 μl) was subcutaneously administered to a one-side hind limb sole of each mouse (male, C57BL/6J, 6 to 8 weeks old), mechanical stimulation or thermal stimulation was applied, and threshold (mechanical stimulation) and latency (thermal stimulation) of a withdrawal reflex behavior of the hind limb were measured. The appearance of the phenomenon of mechanical allodynia or the appearance of the thermal hyperalgesia due to carrageenan was checked over six hours after the administration, and thereafter, the compound 4 was administered intrathecally. Effects were examined over three hours thereafter. The solution of the compound 4 was prepared by dissolving the […] in 99% DMSO, and diluting the same with physiological saline solution (0.2% DMSO in physiological saline solution). The results are illustrated in FIG. 5.
Before and after carrageenan (2%, 25 μl) was subcutaneously administered to a one-side hind limb sole of each mouse (male, C57BL/6J, 6 to 8 weeks old), thermal stimulation was applied, and latency of a withdrawal reflex behavior of the hind limb was measured. The appearance of the phenomenon of thermal hyperalgesia due to carrageenan was checked over six hours after the administration, and thereafter, the compound 5 was administered intrathecally. Effects were examined over three hours thereafter. The solution of the compound 5 was prepared by dissolving the compound 5 in 99% DMSO, and diluting the same with physiological saline solution (0.2% DMSO in physiological saline solution). The results are illustrated in FIG. 6.
Before and after carrageenan (2%, 25 μl) was subcutaneously administered to a one-side hind limb sole of each mouse (male, C57BL/6J, 6 to 8 weeks old), thermal stimulation was applied, and latency of a withdrawal reflex behavior of the hind limb was measured. […]

[2] = test system: carrageenan-induced inflammatory pain model mice; test: von Frey test, mechanical allodynia in carrageenan-induced inflammatory pain model mice; conditions: for threshold of withdrawal reflex behavior to mechanical stimulation (FIG. 3A, FIG. 5A): intrathecal, given 6 h after carrageenan, examined over three hours (compound 2: 0.1, 1 or 10 pmol)
Protocol: After subcutaneous plantar administration of carrageenan, acute inflammation develops over several hours, which causes a phenomenon of hypersensitivity to mechanical stimulation and thermal stimulation. A therapeutic agent containing the compound 1 as an active ingredient was administered to each of model mice of this carrageenan-induced inflammatory pain, and pain was evaluated.
More specifically, at seven hours after carrageenan was subcutaneously administered to a hind limb sole of each mouse (male, C57BL/6J, 6 to 8 weeks old), the compound 1 was administered orally, and at one hour after the administration of the compound 1, therapeutic effects thereof with respect to mechanical allodynia were determined. Specific conditions are as follows.
Mouse: C57BL/6J, male, 8 weeks old, n =4 (each foot, n=8) Induction of pain: 25 μL of physiological saline solution containing 2% of λ-carrageenan was injected subcutaneously to hind limb soles, so that pain was induced. […]
Evaluation of pain: Evaluation was performed by von Frey test. More specifically, a hind limb sole of the mouse was mechanically stimulated with tips of von-Frey filaments having a variety of thicknesses, and a load of stimulation at which the mouse initiated a withdrawal behavior was determined. […]
(§1) Before and after carrageenan (2%, 25 μl) was subcutaneously administered to a one-side hind limb sole of each mouse (male, C57BL/6J, 6 to 8 weeks old), mechanical stimulation or thermal stimulation was applied, and threshold (mechanical stimulation) and latency (thermal stimulation) of a withdrawal reflex behavior of the hind limb were measured. […]
as §1

[3] = test system: carrageenan-induced inflammatory pain model mice; test: von Frey test with simultaneous administration of compound and opioid antagonist in carrageenan-induced inflammatory pain model mice; conditions: intraperitoneal, compound 1 nmol/g plus opioid antagonist 20 nmol/g, 7 h after carrageenan, evaluated at 1 h and 3 h
Protocol: Carrageenan was subcutaneously injected to a hind limb sole of each mouse, and seven hours later, the compound 1 and an opioid antagonist were simultaneously administered intraperitoneally. At one hour after the administration and at three hours after the administration, therapeutic effects with respect to mechanical allodynia were evaluated. Specific conditions were as follows.
Mouse: C57B116J, male, 8 weeks old
Induction of pain: Pain was induced by subcutaneously injecting 20 μL of physiological saline solution containing 2% λ-carrageenan to a hind limb sole.
Administration of therapeutic agent: 1% Tween80 (trademark) physiological saline solution containing 2% DMSO in which the compound 1 and an opioid antagonist described below were dissolved was administered intraperitoneally, in an amount of 0.01 mL per 1 g of the body weight (about 0.2 mL of the solution was administered per one mouse). The compound 1 was prepared so as to be 1 nmol per 1 g of the body weight of the mouse. The opioid antagonist was prepared so as to be 20 nmol per 1g of the body weight of the mouse.
Opioid antagonist MNTX: Methylnaltrexone bromide Antagonist selective to a […]. Unable to pass through the blood-brain barrier.
Opioid antagonist NAL-M: Naloxone methioclide Antagonist not selective to an opioid receptor. Unable to pass through the blood-brain barrier. […]

[4] = test system: complete Freund's adjuvant-induced inflammatory pain model mice; test: threshold of withdrawal reflex to mechanical stimulation in complete Freund's adjuvant-induced inflammatory pain model mice; conditions: intrathecal, three days after CFA, examined over three hours
Protocol: Subcutaneous plantar administration of complete Freund's adjuvant (CFA) caused prolonged inflammation, which was more persistent than the inflammation caused in the carrageenan models, and this caused phenomena of hypersensitivity to mechanical stimulation and thermal stimulation. Using these CFA model mice, pain therapy effects of the compound 3 were evaluated. Before and after CFA (25 μl) was subcutaneously administered to a one-side hind limb sole of each mouse (male, C57BL/6J, 6 to 8 weeks old), mechanical stimulation was applied, and threshold of a withdrawal reflex behavior of the hind limb was measured. The appearance of the phenomenon of mechanical allodynia due to CFA was checked three days after the administration, and the compound 3 was administered intrathecally. Effects were examined over three hours thereafter. The solution of the compound 3 was prepared by dissolving the compound 3 in 99% DMSO, and diluting the same with physiological saline solution (0.2% DMSO in physiological saline solution). The results are illustrated in FIG. 4.

SMILES	suppression of thermal hyperalgesia [1]	threshold of withdrawal reflex behavior to mechanical stimulation (FIG. 3A, FIG. 5A) [2]	further results
CCN1/C(=C/C(C)=O)Sc2ccc(Cl)cc21 [compound 6, (1Z)-1-(5-chloro-3-ethyl-2(3H)-benzothiazoylidene)propan-2-one]	significantly suppressed		
CCN1/C(=C/C(C)=O)Sc2ccc(OC)cc21 [compound 2]	significantly reduced	significantly reduced	
CCN1/C(=C/C(C)=O)Sc2ccc(Br)cc21 [compound 5, (1Z)-1-(5-bromo-3-ethyl-2(3H)-benzothiazoylidene)-2-propanone]	significantly suppressed		
CCN1/C(=C/C(C)=O)Sc2ccc(F)cc21 [compound 1, (1Z)-1-(3-ethyl-5-fluoro-2(3H)-benzothiazolylidene)-2-propanone]			therapeutic effect on thermal hyperalgesia (latency of withdrawal reflex to thermal stimulation), FIG. 2 ([1]; oral, 1 pmol or 10 pmol per 1 g of mouse body, examined over two hours): significantly reduced; analgesic action on mechanical allodynia with simultaneous opioid antagonist (MNTX or NAL-M), FIG. 8 [3]: hindered by a peripheral opioid antagonist; therapeutic effect on mechanical allodynia (threshold load of withdrawal behavior, von Frey filaments), FIG. 1 ([2]; oral, 1 nmol per 1 g body weight, 7 h after carrageenan, evaluated 1 h after administration, C57BL/6J male mice): significantly reduced
CCN1/C(=C/C(C)=O)Sc2cc(OC)ccc21 [compound 3, (1Z)-1-(3-ethyl-6-methoxy-2(3H)-benzothiazoylidene)-2-propanone]			threshold of withdrawal reflex behavior to mechanical stimulation, FIG. 4 [4]: significantly suppressed
CCN1/C(=C/C(C)=O)Sc2c(OC)cccc21 [compound 4]	significantly suppressed	significantly suppressed	
